Starred links: 1 amine or outer side, 2 acyl side, 3 side chain; linkers in the order of their positions; H or OH if unused. *: point of attachment. Suc = O=C(CCC(=O)[*:2])[*:1]; Pentanoyl = CCCCC(=O)*; Butyryl = CCCC(=O)* Where only a bound is given, the exact number is not on record here.

Test [1] relates to HIV wild type virus strain IIIB. Nature of the test: Standard Anti-Viral-Experiment (AVE), HIV-1 replication assay in MT4-LTR-EGFP cells, wild type IIIB. Conditions: 3 days, EGFP signal. Type of test: cell-based. In a few lines:
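MT4-LTR-EGFP cells infected with HIV-1 IIIB, HXB2D or HXB2D gp41 mutants V38A/Q40H alongside serial 4-fold compound dilutions, 3 days at 37° C. EGFP read by laser-scanning microscopy; EC50 by linear interpolation against log concentration. Mutant results given as fold change in EC50 versus wild-type HXB2D.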

In test [2] the test system is HIV-IIIB + 50% HS. The experiment in a line: Standard AVE (50% Human Serum), HIV-1 replication assay in MT4-LTR-EGFP cells. In kind it is cell-based. Conditions: fold change vs EC50 in the assay without human serum. In a few lines: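 MT4-LTR-EGFP cells infected with HIV-1 alongside 4-fold serial compound dilutions in 50% human serum, 3 days at 37 °C. EGFP read by laser-scanning microscopy; EC50 by linear interpolation against log concentration, reported as fold change versus EC50 without serum.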

Test [3] concerns HIV mutant virus strain HXB2D with mutation Q40H in the gp41 gene. Nature of the test: Standard AVE, HXB2D site directed mutant Q40H. In kind it is cell-based, HIV-1. The note with it: fold change vs wild type strain HXB2D. The text has this: • Standard Anti-Viral-Experiment “AVE” (wild type HIV strain IIIB+HIV strain HXB2D side directed mutants V38A and Q40H)
The HIV-1 replication assay measures virus replication (HIV wild type virus strain 111B or HXB2D, or a HIV mutant virus strain HXB2D with mutation V38A or Q40H in the gp41 gene) as an induction of enhanced green fluorescent protein (EGFP) expression. The indicator MT4-LTR-EGFP cells contain an EGFP gene under the control of the HIV-1 LTR promoter sequence. Successful HIV-1 infection results in viral Tat protein expression and subsequent induction of EGFP expression. Compounds/peptides inhibiting HIV-1 infection are expected to reduce EGFP expression as compared to the untreated HIV-infected control.
Serial 4-fold dilutions of test compounds/peptides were mixed with HIV-1 (IIIB, HXB2D, or a HXB2D mutant virus (V38A or Q40H)) and MT4-LTR-EGFP cells and incubated at 37° C. After 3 days, the wells were examined for EGFP expression using an argon laser-scanning microscope. The effective compound/peptide concentration inhibiting 50% of the virus-induced EGFP signal (EC50) was determined by linear interpolation of the EGFP signal vs. logarithm of the compound concentration; (T20, C34 and Sifuvirtide were added as reference compounds). For the V38A and Q40H mutant viruses, results were reported as a fold change in EC50, as compared with a drug-susceptible wild type strain HXB2D, which forms the backbone of the mutant virus. • Standard AVE (50% Human Serum)

Consider “Pentanoyl-ANYAALIEALIRKAQEQQEKNEAALR-NH2 (SMILES CCCCC(=O)N[C@@H](C)C(=O)N[C@@H](CC(N)=O)C(=O)N[C@@H](Cc1ccc(O)cc1)C(=O)N[C@@H](C)C(=O)N[C@@H](C)C(=O)N[C@@H](CC(C)C)C(=O)N[C@H](C(=O)N[C@@H](CCC(=O)O)C(=O)N[C@@H](C)C(=O)N[C@@H](CC(C)C)C(=O)N[C@H](C(=O)N[C@@H](CCCNC(=N)N)C(=O)N[C@@H](CCCCN)C(=O)N[C@@H](C)C(=O)N[C@@H](CCC(N)=O)C(=O)N[C@@H](CCC(=O)O)C(=O)N[C@@H](CCC(N)=O)C(=O)N[C@@H](CCC(N)=O)C(=O)N[C@@H](CCC(=O)O)C(=O)N[C@@H](CCCCN)C(=O)N[C@@H](CC(N)=O)C(=O)N[C@@H](CCC(=O)O)C(=O)N[C@@H](C)C(=O)N[C@@H](C)C(=O)N[C@@H](CC(C)C)C(=O)N[C@@H](CCCNC(=N)N)C(N)=O)[C@@H](C)CC)[C@@H](C)CC) [Peptide 16]”, for which, in test [1], the EC50 (as a rule, the concentration needed to bring the measured effect to its halfway point) was 8 nM. For the same substance, the “HIV-IIIB + 50% HS (Fold change in EC50)” value in test [2] worked out at 0.8. In test [3], the “HIV-HXB2D Q40H mutant (fold change in EC50)” value is listed as above 108.
In the same order, the values of “SUC-ACYLACIDELIAKAQEQQEKNEAALR-NH2 (Suc-ACYLACIDELIAKAQEQQEKNEAALR-NH2; cysteine pairing not given here) [Peptide 36]” are 2 nM, 0.4 and 373.
As for ANYLALIEELIRAAQEQQEKNEAALR [Peptide 10], the concentration for a half-maximal effect (EC50) in test [1] is 4 nM. Further, in test [2], the “HIV-IIIB + 50% HS (Fold change in EC50)” value stood at 0.4. Also, the “HIV-HXB2D Q40H mutant (fold change in EC50)” value in test [3] was above 695.
In the case of “Suc-ECYLRCIEELIRKAQEQQEKNEAALR-NH2 (cysteine pairing not given here) [Peptide 29]”, in test [1], a half-maximal response (EC50) required 0.8 nM. For the same substance, the “HIV-IIIB + 50% HS (Fold change in EC50)” value in test [2] was 0.6. In test [3], the “HIV-HXB2D Q40H mutant (fold change in EC50)” value is given as 98.
In turn, “Butanoyl-ECYLACIEELIRKAQEQQEKNEAALR-NH2 (Butyryl-ECYLACIEELIRKAQEQQEKNEAALR-NH2; cysteine pairing not given here) [Peptide 40]” displayed an EC50 in test [1] of 1 nM. The “HIV-IIIB + 50% HS (Fold change in EC50)” value in test [2] was determined as 1. Besides, the “HIV-HXB2D Q40H mutant (fold change in EC50)” value in test [3] came out at 84.
For “Pentanoyl-ANYAALIEALIRAAQEQQEKNEAALR-NH2 (SMILES CCCCC(=O)N[C@@H](C)C(=O)N[C@@H](CC(N)=O)C(=O)N[C@@H](Cc1ccc(O)cc1)C(=O)N[C@@H](C)C(=O)N[C@@H](C)C(=O)N[C@@H](CC(C)C)C(=O)N[C@H](C(=O)N[C@@H](CCC(=O)O)C(=O)N[C@@H](C)C(=O)N[C@@H](CC(C)C)C(=O)N[C@H](C(=O)N[C@@H](CCCNC(=N)N)C(=O)N[C@@H](C)C(=O)N[C@@H](C)C(=O)N[C@@H](CCC(N)=O)C(=O)N[C@@H](CCC(=O)O)C(=O)N[C@@H](CCC(N)=O)C(=O)N[C@@H](CCC(N)=O)C(=O)N[C@@H](CCC(=O)O)C(=O)N[C@@H](CCCCN)C(=O)N[C@@H](CC(N)=O)C(=O)N[C@@H](CCC(=O)O)C(=O)N[C@@H](C)C(=O)N[C@@H](C)C(=O)N[C@@H](CC(C)C)C(=O)N[C@@H](CCCNC(=N)N)C(N)=O)[C@@H](C)CC)[C@@H](C)CC) [Peptide 14]”, in that order: 13 nM, 2 and above 67.
For “Pentanoyl-ANYLALIEALIRAAQEQQEKNEAALR-NH2 (SMILES CCCCC(=O)N[C@@H](C)C(=O)N[C@@H](CC(N)=O)C(=O)N[C@@H](Cc1ccc(O)cc1)C(=O)N[C@@H](CC(C)C)C(=O)N[C@@H](C)C(=O)N[C@@H](CC(C)C)C(=O)N[C@H](C(=O)N[C@@H](CCC(=O)O)C(=O)N[C@@H](C)C(=O)N[C@@H](CC(C)C)C(=O)N[C@H](C(=O)N[C@@H](CCCNC(=N)N)C(=O)N[C@@H](C)C(=O)N[C@@H](C)C(=O)N[C@@H](CCC(N)=O)C(=O)N[C@@H](CCC(=O)O)C(=O)N[C@@H](CCC(N)=O)C(=O)N[C@@H](CCC(N)=O)C(=O)N[C@@H](CCC(=O)O)C(=O)N[C@@H](CCCCN)C(=O)N[C@@H](CC(N)=O)C(=O)N[C@@H](CCC(=O)O)C(=O)N[C@@H](C)C(=O)N[C@@H](C)C(=O)N[C@@H](CC(C)C)C(=O)N[C@@H](CCCNC(=N)N)C(N)=O)[C@@H](C)CC)[C@@H](C)CC) [Peptide 15]”, in that order: 2 nM, 2 and 168.
In the same order, the values of “AC-ACYLACIEALIRRAQEQQEKNEAALR-NH2 [Peptide 51]” are 3 nM, 1 and 93.
In turn, “SUC-ECYLACIEALIRAAQEQQEKNEAALR-NH2 (Suc-ECYLACIEALIRAAQEQQEKNEAALR-NH2; cysteine pairing not given here) [Peptide 33]” gave an EC50 in test [1] of 1 nM. Also, the “HIV-IIIB + 50% HS (Fold change in EC50)” value in test [2] was determined as 0.6. In addition, the “HIV-HXB2D Q40H mutant (fold change in EC50)” value in test [3] worked out at 269.
In the same order, the values of “Suc-ACYLACIEELIRKAQEQQEKNEAALr-NH2 [Peptide 34]” are 2 nM, 0.3 and 265.
For ANYAALIEALIRAAQEQQEKNEAALR [Peptide 2], in that order: 77 nM, 1 and above 28.
In turn, “Pentanoyl-ENYLALIEELIRKAQEQQEKNEAALR-NH2 (SMILES CCCCC(=O)N[C@@H](CCC(=O)O)C(=O)N[C@@H](CC(N)=O)C(=O)N[C@@H](Cc1ccc(O)cc1)C(=O)N[C@@H](CC(C)C)C(=O)N[C@@H](C)C(=O)N[C@@H](CC(C)C)C(=O)N[C@H](C(=O)N[C@@H](CCC(=O)O)C(=O)N[C@@H](CCC(=O)O)C(=O)N[C@@H](CC(C)C)C(=O)N[C@H](C(=O)N[C@@H](CCCNC(=N)N)C(=O)N[C@@H](CCCCN)C(=O)N[C@@H](C)C(=O)N[C@@H](CCC(N)=O)C(=O)N[C@@H](CCC(=O)O)C(=O)N[C@@H](CCC(N)=O)C(=O)N[C@@H](CCC(N)=O)C(=O)N[C@@H](CCC(=O)O)C(=O)N[C@@H](CCCCN)C(=O)N[C@@H](CC(N)=O)C(=O)N[C@@H](CCC(=O)O)C(=O)N[C@@H](C)C(=O)N[C@@H](C)C(=O)N[C@@H](CC(C)C)C(=O)N[C@@H](CCCNC(=N)N)C(N)=O)[C@@H](C)CC)[C@@H](C)CC) [Peptide 52]” displayed an EC50 in test [1] of 1 nM. In addition, the “HIV-IIIB + 50% HS (Fold change in EC50)” value in test [2] worked out at 2. Moreover, the “HIV-HXB2D Q40H mutant (fold change in EC50)” value in test [3] worked out at 38.
In test [1], “Pentanoyl-ECYLCLIEELIRKAQEQQEKNEAALR-NH2 (cysteine pairing not given here) [Peptide 92]” showed an EC50 of 1 nM. The “HIV-IIIB + 50% HS (Fold change in EC50)” value in test [2] came to 5. In addition, the “HIV-HXB2D Q40H mutant (fold change in EC50)” value in test [3] came out at 3.
For “SUC-CYLACIEALIRAAQEQQEKNEAALR-NH2 (Suc-CYLACIEALIRAAQEQQEKNEAALR-NH2; cysteine pairing not given here) [Peptide 26]”, in that order: 1 nM, 1 and 311.
“SUC-ACYLACIDELIKKAQEQQEKNEAALR-NH2 (Suc-ACYLACIDELIKKAQEQQEKNEAALR-NH2; cysteine pairing not given here) [Peptide 30]” had a concentration giving a half-maximal response (EC50) in test [1] of 1 nM. The “HIV-IIIB + 50% HS (Fold change in EC50)” value in test [2] is listed as 0.5. In test [3], the “HIV-HXB2D Q40H mutant (fold change in EC50)” value is reported as 145.

The values are drawn from patent US20140357577A1, “HIV Membrane Fusion Inhibitors” (priority 2011, published 2014).
